# Source: publication PMC11833715, “Identification of a Cannabinoid Receptor 2 Allosteric Site Using Computational Modeling and Pharmacological Analysis” (ACS Pharmacology & Translational Science, 2025)
# Entries after “also recorded” stand apart in the source; their conditions may differ. Where two headings read alike, the source gives them in different places.
# How the values were obtained:
# WT CB2 [1] = biological target: T1, WT CB2 (Homo sapiens, UniProt P34972); assay: pGlo-Sensor-22F cAMP accumulation assay, WT CB2; format: cell-based; conditions: for EC50: agonist dose-response on CB2, vehicle control (no Ec2la), read-out: pEC50/pIC50 values (converted)
# T1 construct: expressed in transfected cells; host or cells: HEK293
# T1 sequence (P34972 whole entry): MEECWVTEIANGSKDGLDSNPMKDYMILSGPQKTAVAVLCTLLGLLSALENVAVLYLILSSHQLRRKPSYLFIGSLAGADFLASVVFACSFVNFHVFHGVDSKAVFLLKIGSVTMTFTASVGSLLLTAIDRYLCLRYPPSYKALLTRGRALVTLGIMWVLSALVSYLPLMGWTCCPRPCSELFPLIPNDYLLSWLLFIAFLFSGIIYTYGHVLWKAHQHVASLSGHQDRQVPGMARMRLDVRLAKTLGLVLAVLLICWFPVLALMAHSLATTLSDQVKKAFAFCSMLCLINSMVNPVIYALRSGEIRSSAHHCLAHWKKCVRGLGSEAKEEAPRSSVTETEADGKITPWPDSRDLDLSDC
# Text: Compounds were drawn using ChemDraw.
# CB2 mutant T153A = CB2 mutant T153A (Homo sapiens, UniProt P34972, T153A); assay: cAMP accumulation assay, CB2 mutant T153A; conditions: in the presence of JWH133
# Sequence of CB2 mutant T153A (P34972 whole entry T153A): as the sequence (P34972 whole entry) above, with T153A counted along it
# Description: (§2) Primers were designed for the following mutations: F72^2.42A, L125^3.44A, L126^3.45A, I129^3.48A, L133^3.52A, T153^4.45A, I156^4.48A, M157^4.49A, L160^4.52A, F197^5.46A, and L201^5.50A (Table S3). Polymerase chain reactions (PCR) using the Bio-Rad T100TM Thermal Cycler and Applied Biosystems Veriti 96 Well Thermal Cycler to introduce the desired mutations within 3× HA-CB2 (cDNA).
# (§3) HEK293 (ATCC CRL-1573) adherent cells were passaged using Dulbecco’s Modified Eagle’s Medium (DMEM)-high glucose (Sigma-Aldrich). This DMEM was supplemented with penicillin (100 U/mL), streptomycin (100 μg/mL), and heat inactivated fetal bovine serum (FBS, 10%) (PAN-Biotech). […]
# (§4) After 24 h of incubation, the transfected HEK293 cells were then subject to starvation (2 h) with serum-free DMEM (100 μL/well). […] Bioluminescence was then measured using the CLARIOstar Plus Plate Reader (BMG LabTech, Germany). Prior to injecting the treatment ligands, approximately 5–10 basal readings were performed until stabilization was reached. Bioluminescence was measured for a total of 45 cycles (1 min per cycle, 1 s integration time, without filter, a fixed gain of 3000 and autofocus).
# (§5) Data from signaling experiments were analyzed using GraphPad Prism, version 9.4.1 software (GraphPad Software, Inc.). […]
# CB2 mutant I129A = CB2 mutant I129A (Homo sapiens, UniProt P34972, I129A); assay: cAMP accumulation assay, CB2 mutant I129A; conditions: in the presence of JWH133
# Sequence of CB2 mutant I129A (P34972 whole entry I129A): as the sequence (P34972 whole entry) above, with I129A counted along it
# Description: as §2, §3, §4, §5
# CB2 mutant F197A = CB2 mutant F197A (Homo sapiens, UniProt P34972, F197A); assay: cAMP accumulation assay, CB2 mutant F197A; conditions: in the presence of JWH133
# Sequence of CB2 mutant F197A (P34972 whole entry F197A): as the sequence (P34972 whole entry) above, with F197A counted along it
# Description: as §2, §3, §4, §5
# CB2 mutant L160A = CB2 mutant L160A (Homo sapiens, UniProt P34972, L160A); assay: cAMP accumulation assay, CB2 mutant L160A; conditions: in the presence of JWH133
# Sequence of CB2 mutant L160A (P34972 whole entry L160A): as the sequence (P34972 whole entry) above, with L160A counted along it
# Description: as §2, §3, §4, §5
# CB2 mutant M157A = CB2 mutant M157A (Homo sapiens, UniProt P34972, M157A); assay: cAMP accumulation assay, CB2 mutant M157A; conditions: in the presence of JWH133
# Sequence of CB2 mutant M157A (P34972 whole entry M157A): as the sequence (P34972 whole entry) above, with M157A counted along it
# Description: as §2, §3, §4, §5
# CB2 mutant L125A = CB2 mutant L125A (Homo sapiens, UniProt P34972, L125A); assay: cAMP accumulation assay, CB2 mutant L125A; conditions: in the presence of JWH133
# Sequence of CB2 mutant L125A (P34972 whole entry L125A): as the sequence (P34972 whole entry) above, with L125A counted along it
# Description: as §2, §3, §4, §5
# CB2 mutant L126A = CB2 mutant L126A (Homo sapiens, UniProt P34972, L126A); assay: cAMP accumulation assay, CB2 mutant L126A; conditions: in the presence of JWH133
# Sequence of CB2 mutant L126A (P34972 whole entry L126A): as the sequence (P34972 whole entry) above, with L126A counted along it
# Description: as §2, §3, §4, §5
# CB2 mutant L201A = CB2 mutant L201A (Homo sapiens, UniProt P34972, L201A); assay: cAMP accumulation assay, CB2 mutant L201A; conditions: in the presence of JWH133
# Sequence of CB2 mutant L201A (P34972 whole entry L201A): as the sequence (P34972 whole entry) above, with L201A counted along it
# Description: as §2, §3, §4, §5
# CB2 [2] = system: CB2; design: method as in PMID 29990428; conditions: agonists CP 55,940 and 2-AG; cited from earlier work
# WT CB2 [3] = biological target: T1, WT CB2; assay: AlphaLISA SureFire Ultra p-ERK 1/2 assay, WT CB2; format: cell-based; conditions: 1 μM JWH133 + 10 μM Ec2la
# Description: (§1) Culture media were removed and replaced with allosteric modulator (45 μL/well) prepared in serum-free DMEM and incubated (RT, 30 min). The cells were then stimulated with agonist (5 μL/well) prepared in serum-free DMEM and incubated (RT, 10 min). All subsequent reagents were used from the AlphaLISA SureFire Ultra p-ERK 1/2 (Thr202/Tyr204) Assay Kit (PerkinElmer). The medium was removed, freshly prepared 1× lysis buffer (50 μL/well) was added, and the plate was agitated on a plate shaker (RT, 10 min, 350 rpm). The lysates (10 μL) were transferred to a 384-well OptiPlate (PerkinElmer), and the acceptor mix (5 μL) was added to each well under subdued light. The plate was sealed, covered with foil, and incubated (RT, 1 h). Donor mix (5 μL) was added to each well under subdued light. The plate was sealed, covered with foil, and incubated in the dark (RT, 1 h). The plate was read using CLARIOstar Plus Plate Reader (BMG LabTech, Germany) using standard AlphaLISA settings with an […].
# CB2 [4] = system: CB2; design: method as in PMID 29990428; conditions: CB2, Chinese hamster ovary cells; cited from earlier work
# CB2 mutant L133A = CB2 mutant L133A (Homo sapiens, UniProt P34972, L133A); assay: cAMP accumulation assay, CB2 mutant L133A; conditions: in the presence of JWH133
# Sequence of CB2 mutant L133A (P34972 whole entry L133A): as the sequence (P34972 whole entry) above, with L133A counted along it
# Description: as §2, §3, §4, §5
# CB1 = system: CB1; design: method as in PMID 29990428; conditions: CB1, Chinese hamster ovary cells; cited from earlier work
# CB2 double mutants = assay: AlphaLISA SureFire Ultra p-ERK 1/2 assay, CB2 double mutants; format: cell-based, human; conditions: 1 μM JWH133 + 10 μM Ec2la
# Description: as §1
# CB2 mutant F72A = CB2 mutant F72A (Homo sapiens, UniProt P34972, F72A); assay: cAMP accumulation assay, CB2 mutant F72A; conditions: in the presence of JWH133
# Sequence of CB2 mutant F72A (P34972 whole entry F72A): as the sequence (P34972 whole entry) above, with F72A counted along it
# Description: as §2, §3, §4, §5
# CB2 single mutants = assay: AlphaLISA SureFire Ultra p-ERK 1/2 assay, CB2 single mutants; format: cell-based, human; conditions: 1 μM JWH133 + 10 μM Ec2la
# Description: as §1
# CB1 receptor [5] = system: CB1 receptor; design: method as in PMID 22343625; conditions: CB1, in the presence of orthosteric ligand CP 55,940; cited from earlier work
# CB1 receptor [6] = system: CB1 receptor; design: method as in PMID 22343625; conditions: cited from earlier work
structure (smiles),measurement,setting,value
"CCCCC/C=C\C/C=C\C/C=C\C/C=C\CCCC(=O)OC(CO)CO [2-AG, 2-arachidonoylglycerol]",EC50,WT CB2 [1]; Figure S2,48.3 nM
same,EC50,WT CB2 [1]; Figure S3,202 nM
"C=C(C)[C@@H]1CCC(C)=C[C@H]1c1c(O)cc(CCCCC)cc1O [CBD, Cannabidiol]",allosteric signal in cAMP assay,CB2 mutant T153A,still demonstrating an allosteric effect
same,allosteric signal in cAMP assay,CB2 mutant I129A,loss and/or alteration in the allosteric signal
same,allosteric signal in cAMP assay,CB2 mutant F197A,loss and/or alteration in the allosteric signal
same,allosteric signal in cAMP assay,CB2 mutant L160A,still demonstrating an allosteric effect
same,allosteric effect on cAMP signaling,WT CB2 [1],acts as a NAM
same,orthosteric activity in cAMP assay,WT CB2 [1],acting as an agonist
same,allosteric signal in cAMP assay,CB2 mutant M157A,loss and/or alteration in the allosteric signal
same,allosteric signal in cAMP assay,CB2 mutant L125A,loss and/or alteration in the allosteric signal
same,allosteric signal in cAMP assay,CB2 mutant L126A,loss and/or alteration in the allosteric signal
Cc1c(Br)cn(Cc2ccc(F)cc2)c(=O)c1NC(=O)C1CCCCCC1 [Ec2la],allosteric signal in cAMP assay,CB2 mutant T153A,still demonstrating an allosteric effect
same,allosteric signal in cAMP assay,CB2 mutant L201A,still demonstrating an allosteric effect
same,allosteric signal in cAMP assay,CB2 mutant I129A,loss and/or alteration in allosteric signal
same,effect on agonist-stimulated [35S]GTPγS binding,CB2 [2],greatly enhanced
same,allosteric signal in cAMP assay,CB2 mutant F197A,loss and/or alteration in allosteric signal
same,allosteric signal in cAMP assay,CB2 mutant L160A,loss and/or alteration in allosteric signal
same,allosteric effect on p-ERK 1/2 signaling,WT CB2 [3],acts as a NAM
same,"modality in [3H]CP 55,940 binding studies",CB2 [4],PAM
same,allosteric signal in cAMP assay,CB2 mutant L133A,loss and/or alteration in allosteric signal
same,allosteric effect on cAMP signaling,WT CB2 [1],possible PAM-antagonistic effect; also recorded: acts as a PAM
same,allosteric effect on cAMP signaling at nanomolar concentrations,WT CB2 [1],did not demonstrate an allosteric effect; also recorded: no allosteric effect
same,allosteric effect on cAMP signaling,"WT CB2 [1]; WT CB2, in the presence of 2-AG, Ec2la 1 and 10 μM",negative allosteric effect; also recorded: negative allosteric shift
same,allosteric effect on cAMP signaling,"WT CB2 [1]; WT CB2, in the presence of CP 55,940, Ec2la 1 and 10 μM",slight negative allosteric effect; also recorded: negative allosteric shift
same,allosteric effect on cAMP signaling,"WT CB2 [1]; WT CB2, in the presence of JWH133, modulator 0.1, 1, 10 μM",acts like a NAM
same,"modality in [3H]CP 55,940 binding studies",CB1,PAM
same,allosteric signal in cAMP assay,CB2 mutant M157A,loss and/or alteration in allosteric signal
same,allosteric effect on p-ERK 1/2 signaling,CB2 double mutants,either no effect to the allosteric modulator-induced changes on the signal or a slight decrease in the signal
same,allosteric signal in cAMP assay,CB2 mutant L125A,still demonstrating an allosteric effect
same,allosteric signal in cAMP assay,CB2 mutant F72A,loss and/or alteration in allosteric signal
same,allosteric effect on p-ERK 1/2 signaling,CB2 single mutants,either no effect or an increase in the p-ERK 1/2 signal
same,allosteric signal in cAMP assay,CB2 mutant L126A,loss and/or alteration in allosteric signal
CCc1c(C(=O)NCCc2ccc(N3CCCCC3)cc2)[nH]c2ccc(Cl)cc12 [ORG27569],allosteric effect with radioligand binding,CB1 receptor [5],negative allosteric effect
same,allosteric effect in ERK 1/2 signaling,CB1 receptor [6],positive allosteric effect
